# Reference: the supplement of paper PMC10307832
# How the values were obtained:
# Assay in all cases: relative viability (nuclei count vs DMSO), 5 days (fraction); higher = more cells survive
# XMD14-99 + Pemetrexed = compound: CN1CCN(CC1)C2=CC(=C(C=C2)NC3=NC(=C(S3)C(=O)C4=C(C=CC=C4Cl)Cl)N)OC [XMD14-99] + Nc1nc2[nH]cc(CCc3ccc(C(=O)N[C@@H](CCC(=O)O)C(=O)O)cc3)c2c(=O)[nH]1 [Pemetrexed] (partner 0.2 µM)
# Procedure, shortened: (§1)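 For relative viability, nuclei counts in treated wells were divided by those in vehicle wells. Lung cancer cell lines had been pin-tool dosed in 1536-well plates the day after seeding and cultured for 5 days, then fixed and stained in one step (final 0.05% Triton X-100, 1% formaldehyde, 1 ug/ml Hoechst) and imaged at 4×. Doses were one drug alone or a fixed anchor-drug dose plus five library-drug doses (not always all listed) in √10 steps, and values are duplicate-plate medians.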
# XMD14-99 + Linsitinib = compound: CN1CCN(CC1)C2=CC(=C(C=C2)NC3=NC(=C(S3)C(=O)C4=C(C=CC=C4Cl)Cl)N)OC [XMD14-99] + C[C@]1(O)C[C@@H](c2nc(-c3ccc4ccc(-c5ccccc5)nc4c3)c3c(N)nccn32)C1 [Linsitinib] (partner 1 µM)
# Procedure, shortened: as §1
# AZD1208 + Lapatinib = compound: N[C@@H]1CCCN(c2c(/C=C3\SC(=O)NC3=O)cccc2-c2ccccc2)C1 [AZD1208] + CS(=O)(=O)CCNCc1ccc(-c2ccc3ncnc(Nc4ccc(OCc5cccc(F)c5)c(Cl)c4)c3c2)o1 [Lapatinib] (partner 2 µM)
# Procedure, shortened: as §1
# XMD14-99 + Dasatinib = compound: CN1CCN(CC1)C2=CC(=C(C=C2)NC3=NC(=C(S3)C(=O)C4=C(C=CC=C4Cl)Cl)N)OC [XMD14-99] + Cc1nc(Nc2ncc(C(=O)Nc3c(C)cccc3Cl)s2)cc(N2CCN(CCO)CC2)n1 [Dasatinib] (partner 0.075 µM)
# Procedure, shortened: as §1
Cell Line,relative viability (XMD14-99 + Pemetrexed; first compound 0.08 µM),relative viability (XMD14-99 + Pemetrexed; first compound 0.8 µM),relative viability (XMD14-99 + Pemetrexed; first compound 2.53 µM),relative viability (XMD14-99 + Pemetrexed; first compound 8 µM),relative viability (XMD14-99 + Linsitinib; first compound 0.08 µM),relative viability (XMD14-99 + Linsitinib; first compound 0.8 µM),relative viability (XMD14-99 + Linsitinib; first compound 2.53 µM),relative viability (XMD14-99 + Linsitinib; first compound 8 µM),relative viability (AZD1208 + Lapatinib; first compound 0.08 µM),relative viability (AZD1208 + Lapatinib; first compound 0.253 µM),relative viability (AZD1208 + Lapatinib; first compound 0.8 µM),relative viability (AZD1208 + Lapatinib; first compound 2.53 µM),relative viability (AZD1208 + Lapatinib; first compound 8 µM),relative viability (XMD14-99 + Dasatinib; first compound 0.08 µM),relative viability (XMD14-99 + Dasatinib; first compound 0.8 µM),relative viability (XMD14-99 + Dasatinib; first compound 2.53 µM),relative viability (XMD14-99 + Dasatinib; first compound 8 µM)
NCI-H2009,1.07,1,0.947,0.997,1.2,1.15,1.19,0.91,0.982,1.21,0.817,0.742,0.893,0.263,0.294,0.261,0.164
NCI-H1734,0.42,0.409,0.406,0.4,0.854,0.897,0.823,0.745,1.01,1.06,1.01,0.822,0.627,0.394,0.448,0.481,0.423
HOP-62,0.368,0.364,0.36,0.331,0.965,0.894,0.794,0.894,1.14,1.05,0.985,0.875,0.889,0.635,0.658,0.656,0.496
LOU-NH91,0.351,0.379,0.319,0.415,0.963,1,0.924,0.865,0.727,0.704,0.662,0.703,0.583,0.591,0.584,0.541,0.472
NCI-H23,0.687,0.783,0.745,0.494,0.516,0.617,0.59,0.527,1.06,1.22,0.945,0.98,0.735,0.787,0.777,0.724,0.636
PC-3 [JPC-3],1.28,1.13,1.1,0.635,1.04,0.878,0.828,0.844,0.424,0.412,0.451,0.413,0.389,0.915,0.972,0.99,0.907
NCI-H1437,0.303,0.313,0.307,0.27,0.961,0.983,0.735,0.387,0.833,1.04,0.69,0.775,0.691,0.437,0.457,0.35,0.234
NCI-H520,0.624,0.625,0.596,0.501,1.08,0.972,1,0.657,0.805,1.07,0.806,0.83,0.629,0.171,0.21,0.176,0.169
NCI-H1666,0.853,0.857,0.781,0.764,0.809,0.834,0.704,0.625,0.442,0.574,0.452,0.389,0.456,0.826,0.803,0.743,0.59
NCI-H1651,0.605,0.564,0.585,0.477,0.941,0.886,0.904,0.84,0.805,0.784,0.717,0.643,0.62,0.565,0.435,0.368,0.257
NCI-H1755,0.419,0.378,0.37,0.391,1.02,0.989,1.02,0.736,1.05,1.09,1.01,0.978,0.848,0.404,0.405,0.4,0.369
HARA,0.21,0.29,0.265,0.237,0.901,0.946,0.701,0.605,0.727,0.61,0.686,0.737,0.594,0.274,0.249,0.273,0.189
NCI-H647,0.147,0.14,0.209,0.141,1.25,1.12,1.27,0.929,1.04,1.58,1.04,0.97,0.742,0.12,0.216,0.202,0.167
NCI-H1563,0.884,0.937,0.787,0.751,1.21,1.12,1.17,1.08,0.918,1,1.02,1.01,0.915,0.452,0.464,0.449,0.447
NCI-H2347,0.46,0.426,0.391,0.35,1.02,1.02,0.873,0.633,1.09,1.11,0.896,0.843,0.97,0.284,0.308,0.352,0.204
LCLC-97TM1,0.19,0.173,0.198,0.167,0.162,0.157,0.141,0.176,1.03,0.92,,0.882,0.546,0.837,0.766,0.73,0.559
EPLC-272H,0.406,0.335,0.324,0.291,1.14,1.21,1.4,1.02,0.987,0.866,0.841,0.825,0.717,0.323,0.325,0.402,0.392
NCI-H1915,0.472,0.475,0.431,0.426,1.14,1.04,0.951,0.965,0.985,1.08,1.02,0.962,0.977,0.28,0.289,0.293,0.236
NCI-H3122,0.192,0.185,0.205,0.164,1,1.02,0.88,0.678,1.08,0.984,1,1.05,1.15,0.81,0.745,0.754,0.503
